# Reference: patent publication US11806343B2, “Inhibitors of DUX4 induction for regulation of muscle function” (Sonic Master Limited, priority 2017, dated 2023)
# Tests used:
# Assay type in all cases: cell-based, human
# SRC = experiment: RT-PCR of SRC mRNA in patient biopsy-derived primary myotubes; conditions: 10 nM-1 μM, 2.5 days, vs vehicle
# Method: (§1) Patient biopsy-derived primary myoblasts were seeded to a collagen-I coated plate in primary myoblast medium. Medium was changed every other day until cells reached 80% confluence followed by a switch to primary myotube medium. […] After 2.5 days of myotube formation, the cells were lysed with buffer RLT followed by RNA isolation with RNeasy Plus Mini Kit (Qiagen). 500 ng of RNA was used for cDNA synthesis with SuperScript III first-strand synthesis system for RT-PCR (Invitrogen) and both random hexamers and oligo(dT)20 primers. RT-PCR was performed using TaqMan™ Fast Advanced Master Mix (Applied Biosystems). Reactions were analyzed upon a QuantStudio 3 Real-Time PCR machine using the following cycle conditions: 50° C. for 2 minutes, 95° C. for 2 minutes, followed by 40 cycles at 95° C. for 15 seconds, 60° C. for 1 minute, Results were normalized against GAPDH expression.
# PRKDC = experiment: RT-PCR of PRKDC mRNA in patient biopsy-derived primary myotubes; conditions: 10 nM-1 μM, 2.5 days, vs vehicle
# Method: as §1
# DUX4 target genes = experiment: Nanostring panel transcript analysis, DUX4 target genes; conditions: 17MB026 primary myotubes, six-point dose curve 30 nM-3 μM, 3 days
# Method: 17MB026 primary FSHD-affected patient myoblasts (obtained from the University of Rochester FSHD Biorepository) were thawed and cultured as described in Rickard et al., 2015 in primary myoblast medium. Cells (4000 per well) were seeded to a collagen-I coated 96-well plate in 100 μL primary myoblast medium. Medium was changed every other day until cells reached 80% confluence followed by a switch to 100 μL per well primary myotube medium. […] Cells were lysed after 3 days of myotube formation using 10 μL of iScript Buffer (Biorad) per well. The resulting lysates were frozen at −30° C. After thaw, 5 μL of each lysate was combined with a custom-designed Nanostring transcript probe and capture codeset. Probes were hybridized to lysates and run cartridge was loaded and run per standard protocol. Normalization and background subtraction were performed using the nSolver 3.0 software using standard conditions DUX4 target gene and myotube marker gene expression values were normalized to a standard set of housekeeping genes. Duplicate wells of each condition were averaged.
smiles,measurement,setting,value
"CNC(=O)c1cc(Oc2ccc(NC(=O)Nc3cc(C(C)(C)C)nn3-c3ccc4ncccc4c3)c(F)c2)ccn1 [GBC0905, Rebastinib]",expression levels of SRC (mRNA),SRC,No significant difference
same,expression levels of PRKDC (mRNA),PRKDC,No significant difference
same,expression of DUX4-activated genes,DUX4 target genes,dose-dependent decrease of 11 DUX4-activated genes
